Experimental data: the NIST ThermoML archive (doi:10.1016/j.fluid.2010.05.019)

Assays:
[1] = wn = mass fraction of the nth substance listed; conditions: 298.15 K, 101 kPa, Liquid, Alternating current cell with electrodes
[2] = 298.15 K, Liquid; for electrical conductivity: 101 kPa, Alternating current cell with electrodes; for viscosity / mass density: 101.33 kPa; for viscosity: Cone and plate viscometry; for mass density: Pycnometric method

O [water] + C1CC[NH2+]C1.O=[N+]([O-])[O-]
Conditions	electrical conductivity [S/m]
[1], w1 = 1	0.0001

Cc1ccc[n+](C)c1C.O=C[O-] [1,2,3-trimethylpyridinium formate]
[2]
Conditions	electrical conductivity [S/m]	mass density [kg/m3]	viscosity [mPa·s]
–	0.68	1167.6	10

CC[NH+](C(C)C)C(C)C.O=C[O-] [ethyldiisopropylammonium formate]
[2]
Conditions	electrical conductivity [S/m]	mass density [kg/m3]	viscosity [mPa·s]
–	0.586	1014.4	18

C1CC[NH2+]C1.CCCCCCCC(=O)[O-] [pyrrolidinium octanoate] + O
[1]
Conditions	electrical conductivity [S/m]
w2 = 0	0.08
w2 = 0.0475	0.223
w2 = 0.0908	0.347
w2 = 0.1664	0.635
w2 = 0.1997	0.795
w2 = 0.2589	1.06
w2 = 0.31	1.31
w2 = 0.3544	1.58
w2 = 0.3935	1.7
w2 = 0.459	1.93
w2 = 0.4996	2.06
w2 = 0.5551	2.18
w2 = 0.5996	2.23
w2 = 0.6292	2.23
w2 = 0.6548	2.22
w2 = 0.7011	2.17
w2 = 0.7558	2.03
w2 = 0.7724	1.97
w2 = 0.8037	1.83
w2 = 0.8212	1.68

C1CC[NH2+]C1.CC(=O)[O-] [pyrrolidinium acetate] + O
[1]
Conditions	electrical conductivity [S/m]
w2 = 0	0.594
w2 = 0.0474	0.685
w2 = 0.0906	0.716
w2 = 0.1661	1.04
w2 = 0.1994	1.11
w2 = 0.2585	1.53
w2 = 0.3095	1.93
w2 = 0.3539	2.32
w2 = 0.393	2.64
w2 = 0.4585	3.24
w2 = 0.499	3.52
w2 = 0.5546	3.92
w2 = 0.599	4.09
w2 = 0.6543	4.3
w2 = 0.7007	4.37
w2 = 0.7554	4.43
w2 = 0.8033	4.23
w2 = 0.8328	4.02

O=C[O-].c1ccc2[nH+]cccc2c1 [quinolinium formate] + O
[1]
Conditions	electrical conductivity [S/m]
w2 = 0	0.415
w2 = 0.0566	0.621
w2 = 0.0909	0.854
w2 = 0.1667	1.38
w2 = 0.2	1.59
w2 = 0.2593	2.01
w2 = 0.3103	2.47
w2 = 0.3548	2.84
w2 = 0.3939	3.1
w2 = 0.4444	3.49
w2 = 0.4595	3.59
w2 = 0.5	3.81
w2 = 0.5652	4.11
w2 = 0.6	4.23
w2 = 0.6552	4.3
w2 = 0.7059	4.26
w2 = 0.75	4.12
w2 = 0.8	3.94
w2 = 0.8571	3.37
w2 = 0.9	2.75

C1CC[NH2+]C1.CCCCCC(=O)[O-] [pyrrolidinium hexanoate] + O
[1]
Conditions	electrical conductivity [S/m]
w2 = 0	0.204
w2 = 0.0476	0.568
w2 = 0.0909	0.95
w2 = 0.1489	1.54
w2 = 0.1667	1.73
w2 = 0.1837	1.91
w2 = 0.2	2.01
w2 = 0.2308	2.21
w2 = 0.2593	2.4
w2 = 0.2727	2.48
w2 = 0.2982	2.61
w2 = 0.3103	2.65
w2 = 0.3333	2.76
w2 = 0.3548	2.86
w2 = 0.3846	2.91
w2 = 0.403	2.91
w2 = 0.4521	2.92
w2 = 0.5	2.89
w2 = 0.5294	2.85
w2 = 0.5506	2.81
w2 = 0.601	2.53
w2 = 0.7015	1.96
w2 = 0.8004	1.21
w2 = 0.9002	0.551

O [water] + Cc1ccc[n+](C)c1C.O=C[O-]
Conditions	electrical conductivity [S/m]
[1], w1 = 1	0.0001

O [water] + Cc1cccc[n+]1C.O=C[O-]
Conditions	electrical conductivity [S/m]
[1], w1 = 1	0.0001

O [water] + O=C[O-].c1ccc2[nH+]cccc2c1
Conditions	electrical conductivity [S/m]
[1], w1 = 1	0.0001

CCCC(C)[NH3+].O=C[O-] (stereo unspecified) [2-pentanaminium formate]
[2]
Conditions	electrical conductivity [S/m]	mass density [kg/m3]
–	0.036	1163

CC[NH+](C(C)C)C(C)C.O=C[O-] [ethyldiisopropylammonium formate] + O
[1]
Conditions	electrical conductivity [S/m]
w2 = 0	0.586
w2 = 0.0625	0.88
w2 = 0.1176	1.13
w2 = 0.1667	1.39
w2 = 0.2105	1.67
w2 = 0.25	1.96
w2 = 0.3182	2.4
w2 = 0.3478	2.63
w2 = 0.4231	3.11
w2 = 0.4643	3.36
w2 = 0.5	3.51
w2 = 0.5588	3.86
w2 = 0.5833	3.93
w2 = 0.6053	3.96
w2 = 0.625	3.97
w2 = 0.6429	3.97
w2 = 0.6591	3.96
w2 = 0.7	3.97
w2 = 0.7115	3.97
w2 = 0.7222	3.96

C1CC[NH2+]C1.O=C[O-] [pyrrolidinium formate] + O
[1]
Conditions	electrical conductivity [S/m]
w2 = 0	3.29
w2 = 0.0251	4.01
w2 = 0.0501	4.44
w2 = 0.0907	4.95
w2 = 0.1666	5.99
w2 = 0.2304	6.71
w2 = 0.2853	7.2
w2 = 0.3329	7.54
w2 = 0.3745	7.73
w2 = 0.4113	7.83
w2 = 0.4439	7.83
w2 = 0.4995	7.77
w2 = 0.5647	7.33
w2 = 0.5828	7.04
w2 = 0.6662	6.36
w2 = 0.7055	5.92
w2 = 0.7496	5.36
w2 = 0.7917	4.48
w2 = 0.8607	3.18
w2 = 0.9018	2.13
w2 = 0.9106	1.88

Cc1cccc[n+]1C.O=C[O-] [1,2-dimethylpyridinium formate]
[2]
Conditions	electrical conductivity [S/m]	mass density [kg/m3]	viscosity [mPa·s]
–	1.04	1020.9	2.61

C1CC[NH2+]C1.CCCCCC(=O)[O-] [pyrrolidinium hexanoate]
[2]
Conditions	electrical conductivity [S/m]	mass density [kg/m3]	viscosity [mPa·s]
–	0.204	988	27.4

Cc1cccc[n+]1C.O=C[O-] [1,2-dimethylpyridinium formate] + O
[1]
Conditions	electrical conductivity [S/m]
w2 = 0	1.04
w2 = 0.051	1.37
w2 = 0.0908	1.64
w2 = 0.1665	2.21
w2 = 0.2854	3.27
w2 = 0.333	3.77
w2 = 0.4114	4.52
w2 = 0.4441	4.74
w2 = 0.4997	5.26
w2 = 0.5451	5.56
w2 = 0.6151	5.98
w2 = 0.6549	6.16
w2 = 0.7056	6.23
w2 = 0.7617	6
w2 = 0.7998	5.68
w2 = 0.857	4.85
w2 = 0.8748	4.51
w2 = 0.8888	4.21
w2 = 0.8999	3.93
w2 = 0.909	3.7

CCCC(C)[NH3+].O=C[O-] (stereo unspecified) [2-pentanaminium formate] + O
[1]
Conditions	electrical conductivity [S/m]
w2 = 0	0.036
w2 = 0.056	0.121
w2 = 0.1005	0.197
w2 = 0.1623	0.342
w2 = 0.2793	0.847
w2 = 0.3676	1.38
w2 = 0.4366	1.92
w2 = 0.5375	2.8
w2 = 0.6078	3.3
w2 = 0.6595	3.51
w2 = 0.6992	3.6
w2 = 0.7561	3.57
w2 = 0.7999	3.4
w2 = 0.88	2.93
w2 = 0.9	2.73
w2 = 0.91	2.38
w2 = 0.925	2.13
w2 = 0.933	1.94
w2 = 0.943	1.71
w2 = 0.954	1.47
w2 = 0.967	1.13
w2 = 0.982	0.677

O [water] + C1CC[NH2+]C1.CC(=O)[O-]
Conditions	electrical conductivity [S/m]
[1], w1 = 1	0.0001

C1CC[NH2+]C1.CCCCCCC(=O)[O-] [pyrrolidinium heptanoate] + O
[1]
Conditions	electrical conductivity [S/m]
w2 = 0	0.186
w2 = 0.0476	0.528
w2 = 0.0909	0.74
w2 = 0.1489	1.13
w2 = 0.2	1.41
w2 = 0.2593	1.8
w2 = 0.2857	1.97
w2 = 0.3103	2.12
w2 = 0.3333	2.22
w2 = 0.3548	2.31
w2 = 0.375	2.38
w2 = 0.3939	2.42
w2 = 0.403	2.44
w2 = 0.4203	2.47
w2 = 0.4444	2.53
w2 = 0.4595	2.56
w2 = 0.4872	2.59
w2 = 0.5	2.6
w2 = 0.5238	2.61
w2 = 0.5556	2.62
w2 = 0.608	2.47
w2 = 0.7011	2.12
w2 = 0.805	1.52
w2 = 0.905	0.728

O [water] + CCCC(C)[NH3+].O=C[O-]
Conditions	electrical conductivity [S/m]
[1], w1 = 1	0.0001

C1CC[NH2+]C1.O=[N+]([O-])[O-] [pyrrolidinium nitrate] + O
[1]
Conditions	electrical conductivity [S/m]
w2 = 0	5.01
w2 = 0.0476	6.79
w2 = 0.0908	7.74
w2 = 0.1665	9.11
w2 = 0.1999	9.7
w2 = 0.2591	10.4
w2 = 0.3101	10.9
w2 = 0.3546	11.1
w2 = 0.3937	11.3
w2 = 0.4592	11.2
w2 = 0.4998	10.8
w2 = 0.5553	10.9
w2 = 0.5998	10.4
w2 = 0.655	9.97
w2 = 0.7013	9.42
w2 = 0.7999	7.86
w2 = 0.8504	6.1
w2 = 0.9074	4.5
w2 = 0.96	2.5
w2 = 0.9987	0.122

C1CC[NH2+]C1.CCCCCCCCC(=O)[O-] [pyrrolidinium nonanoate] + O
[1]
Conditions	electrical conductivity [S/m]
w2 = 0	0.064
w2 = 0.0476	0.073
w2 = 0.0909	0.122
w2 = 0.1667	0.295
w2 = 0.2	0.392
w2 = 0.2593	0.579
w2 = 0.3103	0.754
w2 = 0.3548	0.915
w2 = 0.3939	1.07
w2 = 0.4595	1.29
w2 = 0.5	1.44
w2 = 0.5556	1.61
w2 = 0.5833	1.68
w2 = 0.6	1.73
w2 = 0.6154	1.76
w2 = 0.6296	1.79
w2 = 0.6429	1.81
w2 = 0.6552	1.84
w2 = 0.6667	1.85
w2 = 0.7143	1.87
w2 = 0.8065	1.63
w2 = 0.902	1.08

C1CC[NH2+]C1.CC(=O)[O-] [pyrrolidinium acetate]
[2]
Conditions	electrical conductivity [S/m]	mass density [kg/m3]	viscosity [mPa·s]
–	0.594	1054.3	30.2

C1CC[NH2+]C1.CCCCCCCCC(=O)[O-] [pyrrolidinium nonanoate]
[2]
Conditions	electrical conductivity [S/m]	mass density [kg/m3]	viscosity [mPa·s]
–	0.064	931.5	74.4

O [water] + C1CC[NH2+]C1.CCCCCCCC(=O)[O-]
Conditions	electrical conductivity [S/m]
[1], w1 = 1	0.0001

Cc1ccc[n+](C)c1C.O=C[O-] [1,2,3-trimethylpyridinium formate] + O
[1]
Conditions	electrical conductivity [S/m]
w2 = 0	0.68
w2 = 0.0476	0.837
w2 = 0.0909	0.963
w2 = 0.1666	1.33
w2 = 0.1999	1.48
w2 = 0.2592	1.88
w2 = 0.3103	2.31
w2 = 0.3547	2.69
w2 = 0.4117	3.23
w2 = 0.4594	3.62
w2 = 0.4999	3.95
w2 = 0.5555	4.37
w2 = 0.5999	4.65
w2 = 0.6551	4.74
w2 = 0.7014	4.75
w2 = 0.7499	4.75
w2 = 0.7999	4.51
w2 = 0.8571	3.85
w2 = 0.9	3.13
w2 = 0.95	1.93

O [water] + C1CC[NH2+]C1.O=C[O-]
Conditions	electrical conductivity [S/m]
[1], w1 = 1	0.0001

O [water] + C1CC[NH2+]C1.CCCCCCC(=O)[O-]
Conditions	electrical conductivity [S/m]
[1], w1 = 1	0.0001

C1CC[NH2+]C1.CCCCCCCC(=O)[O-] [pyrrolidinium octanoate]
[2]
Conditions	electrical conductivity [S/m]	mass density [kg/m3]	viscosity [mPa·s]
–	0.08	949.5	36.5

O [water] + C1CC[NH2+]C1.CCCCCC(=O)[O-]
Conditions	electrical conductivity [S/m]
[1], w1 = 1	0.0001

O [water]
Conditions	electrical conductivity [S/m]
[2]	0.0001

C1CC[NH2+]C1.CCCCCCC(=O)[O-] [pyrrolidinium heptanoate]
[2]
Conditions	electrical conductivity [S/m]	mass density [kg/m3]
–	0.186	972.1

C1CC[NH2+]C1.O=C[O-] [pyrrolidinium formate]
[2]
Conditions	electrical conductivity [S/m]	viscosity [mPa·s]
–	3.29	2.5

O [water] + CC[NH+](C(C)C)C(C)C.O=C[O-]
Conditions	electrical conductivity [S/m]
[1], w1 = 1	0.0001

C1CC[NH2+]C1.O=[N+]([O-])[O-] [pyrrolidinium nitrate]
[2]
Conditions	electrical conductivity [S/m]	viscosity [mPa·s]
–	5.01	5.2

O [water] + C1CC[NH2+]C1.CCCCCCCCC(=O)[O-]
Conditions	electrical conductivity [S/m]
[1], w1 = 1	0.0001

O=C[O-].c1ccc2[nH+]cccc2c1 [quinolinium formate]
[2]
Conditions	electrical conductivity [S/m]	mass density [kg/m3]	viscosity [mPa·s]
–	0.415	1153	8.2
